As a reminder, the IC50 is the concentration at which inhibition is half-maximal.

Data on twelve molecules can be found in ChEMBL document CHEMBL3351904, “Synthesis of new bioisosteric hemiasterlin analogues with extremely high cytotoxicity” (Bioorg Med Chem Lett, 2014).

One test concerns HepG2. In words: Cytotoxicity against human HepG2 cells assessed as reduction in cell growth after 3 days by MTT assay. The note with it: HepG2, 72 h. It counts as functional, cell-based. (Tetrazolium dyes change colour on reduction, which living cells bring about.)
A further test has as its system KB. In words: Cytotoxicity against human KB cells assessed as reduction in cell growth after 3 days by MTT assay. Conditions: 72 h. Format: functional, cell-based.

On to `CN[C@H](C(=O)N[C@H](C(=O)N(C)[C@H](/C=C(\C)C(=O)O)C(C)C)C(C)(C)C)C(C)(C)c1ccc2ccccc2c1`, for which the half-inhibitory concentration (IC50) in the test on HepG2 and in the test on KB was 1.9 nM each time.
As for `CN[C@@H](C(=O)N[C@H](C(=O)N(C)[C@H](/C=C(\C)C(=O)O)C(C)C)C(C)(C)C)C(C)(C)c1ccc2ccccc2c1`, the figures for the IC50 in the test with HepG2 and with KB were 34 nM and 14 nM, respectively.
For the molecule `CN[C@@H](C(=O)N[C@H](C(=O)N(C)[C@H](/C=C(\C)C(=O)O)C(C)C)C(C)(C)C)C(C)(C)c1coc2ccccc12`, the IC50 came out at 37 nM with HepG2 and 43 nM with KB.
For `CCOC(=O)/C(C)=C/[C@H](C(C)C)N(C)C(=O)[C@@H](NC(=O)[C@H](NC)C(C)(C)c1ccc(Br)cc1)C(C)(C)C`, the figures for the IC50 in the test on HepG2 and with KB were 10 nM and 172 nM, respectively.
The corresponding values for `CN[C@H](C(=O)N[C@H](C(=O)N(C)[C@H](/C=C(\C)C(=O)O)C(C)C)C(C)(C)C)C(C)(C)c1ccc(Br)cc1` are 1.8 nM and 1.7 nM.
In the same order, the values of `CCOC(=O)/C(C)=C/[C@H](C(C)C)N(C)C(=O)[C@@H](NC(=O)[C@@H](NC)C(C)(C)c1ccc2ccccc2c1)C(C)(C)C` are 13 nM and 13 nM.
The corresponding values for `CCOC(=O)/C(C)=C/[C@H](C(C)C)N(C)C(=O)[C@@H](NC(=O)[C@@H](NC)C(C)(C)c1coc2ccccc12)C(C)(C)C` are 11 nM and 13 nM.
Regarding `CCOC(=O)/C(C)=C/[C@H](C(C)C)N(C)C(=O)[C@@H](NC(=O)[C@@H](NC)C(C)(C)c1ccc(Br)cc1)C(C)(C)C`, the IC50 in the test with HepG2 stood at 6 nM; in the test with KB, 12 nM.
For `CN[C@H](C(=O)N[C@H](C(=O)N(C)[C@H](/C=C(\C)C(=O)O)C(C)C)C(C)(C)C)C(C)(C)c1coc2ccccc12`, the values for the IC50 in the test on HepG2 and in the test on KB were 1.9 nM and 1.7 nM, respectively.
As for `CCOC(=O)/C(C)=C/[C@H](C(C)C)N(C)C(=O)[C@@H](NC(=O)[C@H](NC)C(C)(C)c1ccc2ccccc2c1)C(C)(C)C`, the IC50 in the test on HepG2 stood at 144 nM; with KB, 181 nM.
The corresponding values for `CN[C@@H](C(=O)N[C@H](C(=O)N(C)[C@H](/C=C(\C)C(=O)O)C(C)C)C(C)(C)C)C(C)(C)c1ccc(Br)cc1` are 13 nM and 11 nM.
For `CCOC(=O)/C(C)=C/[C@H](C(C)C)N(C)C(=O)[C@@H](NC(=O)[C@H](NC)C(C)(C)c1coc2ccccc12)C(C)(C)C`, the results for the IC50 in the test with HepG2 and with KB were 730 nM and 760 nM, respectively.
